Laboratory results reported in article PMC8376047, “Complexation of uranyl (UO2)^2+ with bidentate ligands: XRD, spectroscopic, computational, and biological studies” (PLoS ONE, 2021).

How the values were obtained:
Assay in all cases: UV-Vis absorption titration (Kb) and tryptophan fluorescence quenching (KSV […])
Assay type in all cases: binding
[1] = molecular target: T1, human serum albumin (HSA) (Homo sapiens, UniProt P02768)
T1 construct: gene ALB

[2] = molecular target: T1, human serum albumin (HSA); remark: listed apart in the source
[3] = molecular target: T1, human serum albumin (HSA); remark: listed apart in the source

T1 sequence (P02768 25-609): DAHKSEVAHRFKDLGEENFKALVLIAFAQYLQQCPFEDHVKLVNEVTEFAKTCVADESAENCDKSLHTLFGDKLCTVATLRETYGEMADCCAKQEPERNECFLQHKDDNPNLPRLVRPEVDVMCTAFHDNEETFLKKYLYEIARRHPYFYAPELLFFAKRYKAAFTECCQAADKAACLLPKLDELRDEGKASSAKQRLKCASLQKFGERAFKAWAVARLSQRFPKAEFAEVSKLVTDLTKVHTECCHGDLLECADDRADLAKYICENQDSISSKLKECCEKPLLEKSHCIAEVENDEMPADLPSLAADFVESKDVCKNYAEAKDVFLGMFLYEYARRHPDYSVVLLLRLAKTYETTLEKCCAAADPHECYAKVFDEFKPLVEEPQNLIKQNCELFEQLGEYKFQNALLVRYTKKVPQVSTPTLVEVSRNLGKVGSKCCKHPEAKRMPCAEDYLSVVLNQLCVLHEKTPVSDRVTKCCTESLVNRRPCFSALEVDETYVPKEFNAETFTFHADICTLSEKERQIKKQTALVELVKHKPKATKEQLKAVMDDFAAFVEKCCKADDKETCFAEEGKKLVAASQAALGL

[(UO2)(OAc)2(CMZ)]
UV-Vis absorption titration (Kb) and tryptophan fluorescence quenching (KSV 7.2×) [1]: 2.10×10^5

[(UO2)(OAc)2(MP)]
UV-Vis absorption titration (Kb) and tryptophan fluorescence quenching (KSV 9.75) [2]: 2.26×10^5

[(UO2)(OAc)2(SCZ)]
UV-Vis absorption titration (Kb) and tryptophan fluorescence quenching (KSV 9.46) [3]: 7×10^4
